The results in this text go back to patent publication US20100173888A1 (Pfizer Inc, priority 2008, published 2010).

Structures are written as SMILES. Where a name gives a salt, the structure may show the parent alone.

The target in the assay is human recombinant H-PGDS (Homo sapiens, UniProt O60760). The assay can be described thus: Fluorescence intensity h-PGDS TBA enzyme assay (PGH2 depletion, MDA/TBA fluorescence). The class given is biochemical. The settings on record: 1:175,000 human recombinant H-PGDS, 42 second reaction, 3-fold serial dilutions, highest concentration typically 1 μM. Summed up: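 Recombinant human H-PGDS preincubated with inhibitor 10 min at room temperature in pH 8.0 Tris, MgCl2, IgG, 2.5 mM glutathione, 0.5% DMSO. Reaction with 5.0 μM PGH2 stopped at 42 s with FeCl2/citric acid; MDA–TBA fluorescence (ex 530/em 565 nm) read after 70° C. IC50 by 4-parameter fit, 11 concentrations.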
Sequence of human recombinant H-PGDS (O60760 whole entry): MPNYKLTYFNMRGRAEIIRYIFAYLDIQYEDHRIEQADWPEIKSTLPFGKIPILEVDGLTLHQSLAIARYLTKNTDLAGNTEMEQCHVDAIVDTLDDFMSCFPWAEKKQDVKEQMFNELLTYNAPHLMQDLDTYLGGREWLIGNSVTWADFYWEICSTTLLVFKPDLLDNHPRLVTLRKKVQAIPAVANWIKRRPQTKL
Take `CN1CCC(NC(=O)[C@@H]2CC[C@H](NC(=O)c3ccc(-c4cccc(F)c4)nc3)C2)CC1` [Example 174, 6-(3-Fluorophenyl)-N-{(1S,3R)-3-[(1-methylpiperidin-4-yl)carbamoyl]cyclopentyl}nicotinamide]: the IC50 (in general, the concentration that gives 50% inhibition) came to 1860 nM.

Turning to `NC(=O)[C@@H]1CC[C@H](NC(=O)c2ccc(-c3cccc(F)c3)nc2)C1` [Example 175, N-[(1S,3R)-3-Carbamoylcyclopentyl]-6-(3-fluorophenyl)nicotinamide], the IC50 was found to be 20.2 nM.

For `O=C(N[C@H]1CC[C@@H](C(=O)N2CCNCC2)C1)c1ccc(-c2cccc(F)c2)nc1` [Example 176, 6-(3-Fluorophenyl)-N-[(1S,3R)-3-(piperazin-1-ylcarbonyl)cyclopentyl]nicotinamide], the IC50 was 9 nM.

Regarding `NC1CCN(C(=O)[C@@H]2CC[C@H](NC(=O)c3ccc(-c4cccc(F)c4)nc3)C2)CC1` [Example 177, N-{(1S,3R)-3-[(4-Aminopiperidin-1-yl)carbonyl]cyclopentyl}-6-(3-fluorophenyl)nicotinamide], the IC50 is 21.4 nM.

For `O=C(N[C@@H]1CC[C@H](C(=O)N2CCOCC2)C1)c1ccc(-c2cccc(F)c2)nc1` [Example 179, 6-(3-Fluorophenyl)-N-[(1R,3S)-3-(morpholin-4-ylcarbonyl)cyclopentyl]nicotinamide], the IC50 was found to be 5.6 nM.

Turning to `O=C(N[C@@H]1CC[C@H](C(=O)N2CC[C@@H](F)C2)C1)c1ccc(-c2cccc(F)c2)nc1` [Example 180, 6-(3-Fluorophenyl)-N-[(1R,3S)-3-{[(3R)-3-fluoropyrrolidin-1-yl]carbonyl}cyclopentyl]nicotinamide], the IC50 was 8.9 nM.

Take `O=C(N[C@@H]1CC[C@H](C(=O)N2CC[C@H](F)C2)C1)c1ccc(-c2cccc(F)c2)nc1` [Example 181, 6-(3-Fluorophenyl)-N-[(1R,3S)-3-{[(3S)-3-fluoropyrrolidin-1-yl]carbonyl}cyclopentyl]nicotinamide]: the IC50 stood at 5.8 nM.

With `CN1CCN(C(=O)[C@H]2CC[C@@H](NC(=O)c3ccc(-c4cccc(F)c4)nc3)C2)CC1=O` [Example 182, 6-(3-Fluorophenyl)-N-[(1R,3S)-3-[(4-methyl-3-oxopiperazin-1-yl)carbonyl]cyclopentyl}nicotinamide], the IC50 was 17.8 nM.

In the case of `CN(C)CCNC(=O)[C@H]1CC[C@@H](NC(=O)c2ccc(-c3cccc(F)c3)nc2)C1` [Example 183], the IC50 is 75.2 nM.

For the molecule `O=C(N[C@@H]1CC[C@H](C(=O)N2CCN(CCO)CC2)C1)c1ccc(-c2cccc(F)c2)nc1` [Example 184], the IC50 was found to be 20.3 nM.

Consider `COCCNC(=O)[C@H]1CC[C@@H](NC(=O)c2ccc(-c3cccc(F)c3)nc2)C1` [Example 185], for which the IC50 came out at 25.4 nM.

With `NC(=O)[C@H]1CC[C@@H](NC(=O)c2ccc(-c3cccc(F)c3)nc2)C1` [Example 186, N-[(1R,3S)-3-Carbamoylcyclopentyl]-6-(3-fluorophenyl)nicotinamide], the IC50 is 23.9 nM.

Regarding `NC1CCN(C(=O)[C@H]2CC[C@@H](NC(=O)c3ccc(-c4cccc(F)c4)nc3)C2)CC1` [Example 187], the IC50 is 30.7 nM.

Regarding `C[C@@H](CO)NC(=O)[C@H]1CCC[C@@H](NC(=O)c2ccc(-c3cccc(F)c3)nc2)C1` [Example 188], the IC50 turned out to be 17.1 nM.

Take `N[C@@H]1[C@H]2CN(C(=O)[C@H]3CCC[C@@H](NC(=O)c4ccc(-c5cccc(F)c5)nc4)C3)C[C@@H]12` [Example 190, N-cis-3-{[(1R,5S,6S)-6-Amino-3-azabicyclo[3.1.0]hex-3-yl]carbonyl}cyclohexyl]-6-(3-fluorophenyl)nicotinamide hydrochloride]: the IC50 is 17.5 nM.

Turning to `C[C@@H](CO)NC(=O)[C@H]1CCC[C@@H](NC(=O)c2ccc(-c3cccc(F)c3)nc2)C1` [Example 194], the IC50 turned out to be 14.7 nM.

Turning to `CCC(O)CNC(=O)[C@H]1CCC[C@@H](NC(=O)c2ccc(-c3cccc(F)c3)nc2)C1` (stereo partly drawn) [Example 197], the IC50 was 10.2 nM.

Regarding `O=C(N[C@H]1CC[C@H](C(=O)NC2CCNCC2)CC1)c1ccc(-c2cccc(F)c2)nc1` [Example 201, 6-(3-Fluorophenyl)-N-[trans-4-(piperidin-4-ylcarbamoyl)cyclohexyl]nicotinamide], the IC50 is 31 nM.

In the case of `C[C@H](O)C(=O)N[C@@H]1CCC[C@H](NC(=O)c2ccc(-c3cccc(F)c3)nc2)C1` [Example 206, 6-(3-Fluorophenyl)-N-{cis-3-{[(2S)-2-hydroxypropanoyl]amino}cyclohexyl]nicotinamide], the IC50 was 13.5 nM.

Take `N[C@@H]1[C@H]2CN(C(=O)[C@H]3CC[C@H](NC(=O)c4ccc(-c5cccc(F)c5)nc4)CC3)C[C@@H]12` [Example 210, N-(trans-4-{[(1R,5S,6S)-6-Amino-3-azabicyclo[3.1.0]hex-3-yl]carbonyl}cyclohexyl)-6-(3-fluorophenyl)nicotinamide]: the IC50 turned out to be 9.6 nM.

Take `CN(C(=O)[C@H]1CC[C@H](NC(=O)c2ccc(-c3cccc(F)c3)nc2)CC1)C1CCNCC1` [Example 211, 6-(3-Fluorophenyl)-N-{trans-4-[methyl(piperidin-4-yl)carbamoyl]cyclohexyl}nicotinamide]: the IC50 amounted to 13 nM.

Regarding `O=C(N[C@H]1CC[C@H]([C@H](O)C2CC2)CC1)c1ccc(-c2cccc(F)c2)nc1` [Example 212, N-[4-trans-((R)-Cyclopropylhydroxymethyl)cyclohexyl]-6-(3-fluorophenyl)nicotinamide], the IC50 worked out at 2.3 nM.

Take `O=C(N[C@H]1CC[C@H](N2CCCC2)CC1)c1ccc(-c2cccc(F)c2)nc1` [Example 213, 6-(3-Fluorophenyl)-N-(trans-4-pyrrolidin-1-ylcyclohexyl)nicotinamide]: the IC50 came to 36 nM.

In the case of `CCC(O)[C@H]1CC[C@H](NC(=O)c2ccc(-c3cccc(F)c3)nc2)CC1` (stereo partly drawn) [Example 214, 6-(3-Fluorophenyl)-N-[trans-4-(1-hydroxypropyl)cyclohexyl]nicotinamide], the IC50 turned out to be 3 nM.

With `CC(O)[C@H]1CC[C@H](NC(=O)c2ccc(-c3cccc(F)c3)nc2)CC1` (stereo partly drawn) [Example 215, 6-(3-Fluorophenyl)-N-[trans-4-(1-hydroxyethyl)cyclohexyl]nicotinamide], the IC50 stood at 5.9 nM.

In the case of `CC(C)(O)C(=O)N[C@H]1CC[C@@H](NC(=O)c2ccc(-c3cccc(F)c3)nc2)CC1` [Example 216, 6-(3-Fluorophenyl)-N-{cis-4-[(2-hydroxy-2-methylpropanoyl)amino]cyclohexyl}nicotinamide], the IC50 was 31.8 nM.

With `CN1CCC(C(=O)N[C@H]2CC[C@@H](NC(=O)c3ccc(-c4cccc(F)c4)nc3)CC2)CC1` [Example 218, 6-(3-fluorophenyl)-N-(cis-4-{[(1-methylpiperidin-4-yl)carbonyl]amino}cyclohexyl)nicotinamide], the IC50 turned out to be 79.7 nM.

Regarding `O=C(CO)N[C@H]1CC[C@@H](NC(=O)c2ccc(-c3cccc(F)c3)nc2)CC1` [Example 220, 6-(3-fluorophenyl)-N-[cis-4-(glycoloylamino)cyclohexyl]nicotinamide], the IC50 was 32.7 nM.

Take `CN(C)CC(=O)N[C@H]1CC[C@@H](NC(=O)c2ccc(-c3cccc(F)c3)nc2)CC1` [Example 221, N-{cis-4-[(N,N-dimethylglycyl)amino]cyclohexyl}-6-(3-fluorophenyl)nicotinamide]: the IC50 worked out at 52.7 nM.

Regarding `NCC(=O)N[C@H]1CC[C@@H](NC(=O)c2ccc(-c3cccc(F)c3)nc2)CC1` [Example 224, 6-(3-fluorophenyl)-N-[cis-4-(glycylamino)cyclohexyl]nicotinamide], the IC50 came out at 74 nM.

As for `COC1(CO)CCC(NC(=O)c2ccc(-c3cccc(F)c3)nc2)CC1` (stereo not drawn) [Example 225, 6-(3-Fluorophenyl)-N-[4-(hydroxymethyl)-4-methoxycyclohexyl]nicotinamide], the IC50 was determined as 5.3 nM.

`CC(C)OCC1(O)CCC(NC(=O)c2ccc(-c3cccc(F)c3)nc2)CC1` (stereo not drawn) [Example 226, 6-(3-Fluorophenyl)-N-[4-hydroxy-4-(isopropoxymethyl)cyclohexyl]nicotinamide]: the IC50 came out at 13.2 nM.

On to `O=C(NC1CCC(O)(CO)CC1)c1ccc(-c2cccc(F)c2)nc1` (stereo not drawn) [Example 227, 6-(3-Fluorophenyl)-N-[4-hydroxy-4-(hydroxymethyl)cyclohexyl]nicotinamide], for which the IC50 was 23.8 nM.

Take `CCCOCC1(O)CCC(NC(=O)c2ccc(-c3cccc(F)c3)nc2)CC1` (stereo not drawn) [Example 228, 6-(3-Fluorophenyl)-N-[4-hydroxy-4-(propoxymethyl)cyclohexyl]nicotinamide]: the IC50 was determined as 17.5 nM.

With `CNC(=O)OC(C)(C)[C@H]1CC[C@H](NC(=O)c2ccc(-c3cccc(F)c3)nc2)CC1` [Example 229, 1-[trans-4-({[6-(3-Fluorophenyl)pyridin-3-yl]carbonyl}amino)cyclohexyl]-1-methylethyl methylcarbamate], the IC50 was 2.5 nM.

With `CN1CCN(C(=O)[C@@]2(C)CCC[C@@H](NC(=O)c3ccc(-c4cccc(F)c4)nc3)C2)CC1` [Example 230, 6-(3-Fluorophenyl)-N-{(1R,3S)-3-methyl-3-[(4-methylpiperazin-1-yl)carbonyl]cyclohexyl}nicotinamide], the IC50 was found to be 37.3 nM.

Take `COC1(C(C)O)CCC(NC(=O)c2ccc(-c3cccc(F)c3)nc2)CC1` (stereo not drawn) [Example 232, 6-(3-Fluorophenyl)-N-[4-(1-hydroxyethyl)-4-methoxycyclohexyl]nicotinamide]: the IC50 was found to be 31.2 nM.

`CN(C)C(=O)N[C@H]1CC[C@@H](NC(=O)c2ccc(-c3cccc(F)c3)nc2)CC1` [Example 234, N-{cis-4-[(Dimethylcarbamoyl)amino]cyclohexyl}-6-(3-fluorophenyl)nicotinamide]: the IC50 was 11 nM.

On to `COCC1(O)CCC(NC(=O)c2ccc(-c3cccc(F)c3)nc2)CC1` (stereo not drawn) [Example 235, 6-(3-Fluorophenyl)-N-[4-hydroxy-4-(methoxymethyl)cyclohexyl]nicotinamide], for which the IC50 amounted to 11.8 nM.
